Assay results: patent US20040058940A1, “Pharmaceutical formulation comprising thienopyrimidines and antithrombotics, calcium antagonists, prostaglandins or prostaglandin derivatives (2)” (priority 2000, published 2004)

melting point | SMILES
218 °C | COc1ccc(CNc2nc(CCC(=O)O)nc3sc4ccccc4c23)cc1Cl [Example 2, 3-[4-(3-chloro-4-methoxybenzylamino)-benzothieno-[2,3-d]-pyrimidin-2-yl]propionic acid]
203 to 204 °C | COC(=O)c1ccc(-c2nc(NCc3ccc(OC)c(Cl)c3)c3c(n2)sc2ccccc23)cc1 [Example 3, methyl 4-[4-(3-chloro-4-methoxybenzylamino)-[1]-benzothieno-[2,3-d]-pyrimidin-2-yl]benzoate]
